Reference: patent publication EP1561465A2, “Methods of use of fluoroquinolone compounds against bacteria” (LG Life Sciences, Ltd., priority 1999, dated 2001)
Converted amounts (≈) assume the structure as drawn. Where two headings read alike, the source gives them in different places.

Key:
Format in all cases: cell-based
[1] = test system: Streptococcus pneumoniae; experiment: MIC by E-test (broth microdilution for gemifloxacin), 107 pneumococcal carrier isolates, Athens 1998; conditions: E-test; for MIC Range: in µg/mL (unit assumed); for MIC50 / MIC90: Streptococcus pneumoniae; for MIC50: read-out: MIC50; for MIC90: read-out: MIC90
Protocol: Susceptibility testing was performed by agar dilution or epsilometer method (E-test), as recommended by the NCCLS. […] The susceptibility profiles of the strains were assessed using the Epsilometer method (E-test). The isolates were subdivided into two groups according to their penicillin susceptibility patterns (penicillin-susceptible and penicillin-intermediate.

[2] = test system: Yersinia enterocolitica; experiment: MIC by agar dilution (NCCLS M7-A4), 288 enteropathogenic isolates, eight quinolones; conditions: Yersinia enterocolitica (n = 22)
[3] = test system: Staphylococcus aureus; experiment: MIC by agar macrodilution (NCCLS), 373 Gram positive isolates, Athens 1998; conditions: Methicillin-susceptible Staphylococcus aureus (n = 85)
[4] = test system: Aeromonas spp.; experiment: MIC by agar dilution (NCCLS M7-A4), 288 enteropathogenic isolates, eight quinolones; conditions: Aeromonas spp. (n = 16)
[5] = test system: Enterococcus faecalis; experiment: MIC by agar macrodilution (NCCLS), 373 Gram positive isolates, Athens 1998
[6] = test system: Salmonella spp.; experiment: MIC by agar dilution (NCCLS M7-A4), 288 enteropathogenic isolates, gemifloxacin and 15 other antimicrobials
[7] = Penicillin-intermediate S. pneumoniae (n = 24)
[8] = Penicillin-susceptible S. pneumoniae (n = 107)

Question: Cc1c(F)c(N2CCNC(C)C2)cc2c1c(=O)c(C(=O)O)cn2C1CC1 (stereo not shown) [Grepafloxacin, grepafloxacin] was tested. Which MIC Range [1, 7] did it give?
Answer: 0.047-0.5

Question: What about the MIC Range [1, 8] of the same compound?
Answer: 0.047-1

Question: And the MIC50 [1, 7]?
Answer: 0.19 µg/mL (≈ 0.529 µM)

Question: What about the MIC90 [1, 7] of the same compound?
Answer: 0.38 µg/mL (≈ 1.06 µM)

Question: What about the MIC50 [1, 8] of the same compound?
Answer: 0.19 µg/mL (≈ 0.529 µM)

Question: And the MIC90 [1, 8]?
Answer: 0.38 µg/mL (≈ 1.06 µM)

Question: And the “% Susceptible” value [2]?
Answer: 100%

Question: What about the MIC50 [2] of the same compound?
Answer: 0.03 µg/mL (≈ 0.0835 µM)

Question: And the MIC90 [2]?
Answer: 0.03 µg/mL (≈ 0.0835 µM)

Question: And the “MIC Range” value [2]?
Answer: ≤0.015 to 0.25 µg/mL

Question: And the “MIC Range” value [3]?
Answer: 0.06 to 32 µg/mL

Question: And the MIC50 ([3]; read-out: MIC50)?
Answer: 0.125 µg/mL (≈ 0.348 µM)

Question: What about the MIC90 ([3]; read-out: MIC90) of the same compound?
Answer: 0.25 µg/mL (≈ 0.696 µM)

Question: And the “% Susceptible” value [4]?
Answer: 100%

Question: And the MIC50 [4]?
Answer: 0.03 µg/mL (≈ 0.0835 µM)

Question: What about the MIC90 [4] of the same compound?
Answer: 0.06 µg/mL (≈ 0.167 µM)

Question: What about the “MIC Range” value [4] of the same compound?
Answer: ≤0.015 to 0.12 µg/mL

Question: And the “MIC distribution (µg/ml) 0.03” value [5]?
Answer: 0

Question: What about the “MIC distribution (µg/ml) 0.06” value [5] of the same compound?
Answer: 0

Question: What about the “MIC distribution (µg/ml) 0.125” value [5] of the same compound?
Answer: 0

Question: And the “MIC distribution (µg/ml) 0.25” value [5]?
Answer: 2

Question: And the “MIC distribution (µg/ml) 1” value [5]?
Answer: 22

Question: What about the “MIC distribution (µg/ml) 2” value [5] of the same compound?
Answer: 21

Question: And the “MIC distribution (µg/ml) 4” value [5]?
Answer: 6

Question: And the “MIC distribution (µg/ml) 8” value [5]?
Answer: 4

Question: What about the “MIC distribution (µg/ml) 16” value [5] of the same compound?
Answer: 2

Question: And the “MIC distribution (µg/ml) ≤0.015” value [5]?
Answer: 0

Question: What about the “MIC distribution (µg/ml) ≥32” value [5] of the same compound?
Answer: 19

Question: What about the MIC50 ([5]; Enterococcus faecalis, n = 81 isolates, read-out: MIC50) of the same compound?
Answer: 2 µg/mL (≈ 5.56 µM)

Question: What about the MIC90 ([5]; Enterococcus faecalis, n = 81 isolates, read-out: MIC90) of the same compound?
Answer: ≥ 32 µg/mL

Question: What about the “MIC distribution (µg/ml) 0.5” value ([5]; number of isolates at MIC 0.5 µg/ml, n = 81) of the same compound?
Answer: 5

Question: What about the MIC ([6]; S. hadar(2), isolates with MICs for ciprofloxacin ≥[…], read-out: MIC) of the same compound?
Answer: 1 mg/L (≈ 2.78 µM)

Question: What about the MIC ([6]; S. newport(1), isolate with MIC for ciprofloxacin ≥[…], read-out: MIC) of the same compound?
Answer: 1 mg/L (≈ 2.78 µM)

Question: What about the MIC ([6]; S. virchow(2), isolates with MICs for ciprofloxacin ≥[…], read-out: MIC) of the same compound?
Answer: 0.25 mg/L (≈ 0.696 µM)

Question: What about the “Rates of non-susceptible microorganisms” value ([6]; Salmonella spp.) of the same compound?
Answer: 1%

Question: And the “MIC (mg/L) Range” value ([6]; Salmonella spp. N= 106)?
Answer: 0.03 to 2 mg/L

Question: What about the MIC ([6]; Salmonella, S. tshiongwe(1), isolate with MIC for ciprofloxacin ≥[…], read-out: MIC) of the same compound?
Answer: 2 mg/L (≈ 5.56 µM)

Question: What about the MIC ([6]; Salmonella, read-out: MIC (mg/L) 50%, Salmonella spp. N= 106) of the same compound?
Answer: 0.06 mg/L (≈ 0.167 µM)

Question: What about the MIC ([6]; Salmonella, read-out: MIC (mg/L) 90%, Salmonella spp. N= 106) of the same compound?
Answer: 0.25 mg/L (≈ 0.696 µM)

Question: And the MIC ([6]; Salmonella, the non-susceptible Salmonella spp. isolate(s) (1% of 106), read-out: MIC)?
Answer: 2 mg/L (≈ 5.56 µM)
